The source of these data is patent US20080118441A1, “COMPOSITIONS AND METHODS FOR THE TREATMENT OF GASTROINTESTINAL CONDITIONS” (priority 2006, published 2008).

The assay relates to symptoms of a gastrointestinal condition. Kind of assay: ingestion of glutamine shortly after the present compositions. The format is in vivo. The following applies: glutamine ingested shortly after the compositions. From the text:
In one example, the symptoms of a gastrointestinal condition will reappear rapidly if glutamine is ingested shortly after the present compositions. Exclusion of glutamine from the present compositions is therefore contemplated, and it may be advisable for persons being treated with the present compositions to reduce dietary consumption of glutamine, especially within one hour of ingesting the disclosed composition. Typically, an average person consumes 5-10 grams glutamine per day. In one embodiment, a person being treated with the present composition consumes no glutamine within one hour of ingestion, and preferably consumes less than about 5 grams glutamine per day, more preferably less than about 4.5 grams glutamine per day, and most preferably less than about 4 grams glutamine per day.

The structures appear in SMILES notation.

Consider `NC(=O)CC[C@H](N)C(=O)O` [glutamine], for which the “effect on the therapeutic effect of the disclosed compositions” value is reported as “counteracts the therapeutic effect”.
